Data on 5 compounds can be found in patent publication US10202360B2 (CELGENE QUANTICEL RESEARCH, INC., priority 2016, dated 2019).

One test has as its target BRD4 (Homo sapiens (Human), UniProt O60885). Put plainly: In vitro enzyme inhibition assay - BRD4 inhibition (as described in U.S. Pat. No. 9,034,900). In kind it is binding. Particulars: Table 29; BRD4 BD1.
In another test the target is CREBBP (Homo sapiens (Human), UniProt Q92793). Put plainly: In vitro enzyme inhibition assay - CREBBP inhibition (AlphaScreen, biotinylated H4-tetraacetyl peptide). In kind it is binding. The method, boiled down: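 His-tagged CREBBP expressed in E. coli (50 nM final) incubated with biotinylated H4K5/8/12/16(Ac) peptide (20 nM final) in HEPES pH 7.3 buffer, 0.4% DMSO, 20 min at room temperature.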
In general terms: In Alpha technology, singlet oxygen from a donor bead excites a nearby acceptor bead.

Where [1] appears, read: Table 28, AlphaScreen, H4-tetraacetyl peptide.

A word on the IC50: it is the concentration needed to halve the response being measured.

Each structure is given as a SMILES string.

CREBBP, sequence (Q92793 1081-1197): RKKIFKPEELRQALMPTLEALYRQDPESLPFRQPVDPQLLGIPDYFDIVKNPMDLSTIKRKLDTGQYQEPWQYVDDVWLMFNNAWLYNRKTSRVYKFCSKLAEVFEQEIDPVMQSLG

As to `CCCCS(=O)(=O)Nc1cc(-c2cc(C)c(=O)n(C)c2)nc(Oc2c(C)cccc2C)n1` [Example 72, N-(6-(1,5-dimethyl-6-oxo-1,6-dihydropyridin-3-yl)-2-(2,6-dimethylphenoxy)pyrimidin-4-yl)butane-1-sulfonamide], the values for the IC50 against BRD4, at CREBBP (setting [1]) and against CREBBP (Table 29) were over 5000 nM, under 500 nM and under 500 nM, respectively.
As for `CCCCS(=O)(=O)Nc1cc(-c2cc(Cl)c(=O)n(C)c2)nc(Oc2c(C)cccc2C)n1` [Example 87, N-(6-(5-chloro-1-methyl-6-oxo-1,6-dihydropyridin-3-yl)-2-(2,6-dimethylphenoxy)pyrimidin-4-yl)butane-1-sulfonamide], the IC50 at BRD4 is over 5000 nM; at CREBBP (setting [1]) it was under 500 nM; against CREBBP (Table 29) it was under 500 nM.
As to `CCCCS(=O)(=O)Nc1cc(-c2ccc(=O)n(C)c2)nc(Oc2c(C)cccc2F)n1` [Example 113, Butane-1-sulfonic acid [2-(2-fluoro-6-methyl-phenoxy)-6-(1-methyl-6-oxo-1,6-dihydro-pyridin-3-yl)-pyrimidin-4-yl]-amide], the IC50 on BRD4 is over 5000 nM; at CREBBP (setting [1]) it was under 500 nM; against CREBBP (Table 29), under 500 nM.
As to `CCS(=O)(=O)Nc1ncc(Oc2ccc(F)cc2F)c(-c2cc(C)c(=O)n(C)c2)n1` [N-(5-(2,4-difluorophenoxy)-4-(1,5-dimethyl-6-oxo-1,6-dihydropyridin-3-yl)-pyrimidin-2-yl)ethanesulfonamide], the IC50 is under 500 nM against BRD4 and over 5000 nM against CREBBP (Table 29).
On to `Cc1cc(-c2nc(NS(C)(=O)=O)ncc2Oc2ccc(F)cc2F)cn(C)c1=O` [N-(5-(2,4-difluorophenoxy)-4-(1,5-dimethyl-6-oxo-1,6-dihydropyridin-3-yl)-pyrimidin-2-yl)methanesulfonamide], for which the IC50 is under 500 nM at BRD4 and over 5000 nM on CREBBP (Table 29).
